Tests used:
[1] = test system: 6-O-methylguanine DNA methyltransferase (MGMT) protein; experiment: Test of the expression level of the MGMT protein (western blot) in T98G cells; format: cell-based; conditions: for levels of MGMT protein: T98G glioma cells, 100 μM ASO in lipofectamine 48 h, western blot vs ASO Scr, at least four repetitions
Description: (§1) The U87, T98G and U251 glioma cell lines are cultured in DMEM medium («Dulbecco/Vogt modified Eagle's minimal essential medium» supplemented with 10% fetal calf serum and 1% penicillin and streptomycin.
(§2) When the cultures are at 60% confluence, they are transfected with 100 μM of antisense oligonucleotide (ASO) RG6042 (of sequence SEQ ID NO: 1), or PH1 (SEQ ID NO: 2) or PH2 (SEQ ID NO: 3) or PH3 (SEQ ID NO: 4) or Scr in lipofectamine for 48 h. The ASO Scr (for «scramble» is an ASO serving as a control whose sequence SEQ ID NO: 5 is <A*CATG*>A*C*C*G*C*A*C*T*C*A*<CTAT*A> where * is a phosphorothioate bond and the bases between the signs < and > are 2′-O-methoxyethyl RNA.
Cells transfected with ASO RG6042, ASO Scr, or treated with lipofectamine alone (for control), are harvested for the test of the expression level of the MGMT protein.
The protocol is the same as for the previously cited test of the expression level of the HTT protein with the only change being the use of anti-MGMT antibodies (#2739, from the Cell signaling Technology® brand) in incubation to reveal the MGMT protein. The vinculin is also used here as a load control.
FIG. 4 illustrates in A the result of the western blot produced from cells of the T98G cell line having been transfected with ASO RG6042, with ASO Scr or treated with lipofectamine alone (Ctrl) and, in B, the quantification of MGMT protein levels obtained by western blot after at least 4 repetitions of the experiment presented in A.
(§3) T98G cells transfected with ASO RG6042, or ASO PH1, or ASO PH2 or ASO PH3, or ASO Scr, are harvested for testing the expression level of HTT proteins and MGMT.
(§4) The protocol is the same as for the previously cited tests for the expression level of the HTT protein and the expression level of the MGMT protein. The vinculin is also used here as a load control.
(§5) FIG. 6 illustrates the quantification of the protein levels of HTT in A and of MGMT in B, obtained by western blot after at least four repetitions of the experiment presented in FIG. 5. The statistics were carried out using the Kruskal-wallis test followed by Dunn's multiple comparison test, error bars, SEM, *p<0.05, **p<0.001.

huntingtin (HTT) protein = experiment: Test of the expression level of the HTT protein in T98G cells transfected with ASO RG6042, PH1, PH2, PH3 or Scr; format: cell-based; conditions: T98G glioma cells, 100 μM ASO in lipofectamine 48 h; western blot vs ASO Scr, at least four repetitions
Description: as §1, §2
The cells are rinsed with phosphate-buffered saline (PBS) and then lysed in RIPA-type lysis buffer supplemented with protease and phosphatase inhibitors. The proteins solubilized in the buffer are harvested after centrifugation, denatured in Laemmli loading buffer and deposited on polyacrylamide gel. After migration, the proteins are transferred onto a polyvinylidine difluoride (PVDF) membrane. […] The vinculin is used as a load control.
as §3, §4
FIG. 5 illustrates the result of the western blot produced from cells of the T98G cell line having been transfected with ASO RG6042, with ASO PH1, with ASO PH2, with ASO PH3, or with ASO Scr.
as §5

huntingtin protein (HTT) = experiment: Huntingtin (HTT) protein expression level test (western blot) in transfected glioma cells; format: cell-based; conditions: glioma cells (U251, U87, T98G) transfected with 100 μM ASO in lipofectamine for 48 h; western blot vs ASO Scr / lipofectamine alone
Description: as §1
(§6) When the cultures are at 60% confluence, they are transfected with 100 μM of antisense oligonucleotide (ASO) RG6042 (of sequence SEQ ID NO: 1), or PH1 (SEQ ID NO: 2) or PH2 (SEQ ID NO: 3) or PH3 (SEQ ID NO: 4) or Scr in lipofectamine for 48 h. The ASO Scr (for «scramble» is an ASO serving as a control whose sequence SEQ ID NO: 5 is <A*CATG*>A*C*C*G*C*A*C*T*C*A*<CTAT*A> where * is a phosphorothioate bond and the bases between the signs < and > are 2′-O-methoxyethyl RNA. […]
FIG. 1 illustrates in A the results of the western blot carried out from cells of the U251 cell line having been transfected with ASO RG6042, with the ASO Scr or simply treated with lipofectamine alone (Ctrl for control), and, in B, the quantification of HTT protein levels obtained by western blot after 4 repetitions of the experiment presented in A.
FIG. 2 illustrates in A the result of the western blot produced from cells of the U87 cell line having been transfected with ASO RG6042, with ASO Scr or treated with lipofectamine alone (Ctrl), and, in B, the quantification of HTT protein levels obtained by western blot after at least 3 repetitions of the experiment presented in A. […]

U87 cell line = experiment: Temozolomide (TMZ) sensitivity test (MTT), U87 line; format: cell-based; conditions: U87 cultures, RG6042 vs control
Description: as §1, §6
(§7) The yellow probe of MTT, 3-(4,5-Dimethyl-2-thiazolyl)-2,5-diphenyl-2H-tetrazolium bromide, is then added at a working concentration of 0.5 mg·ml^−1 to each well. […] The optical density (OD) of the contents of each well is then analyzed with a spectrophotometer at wavelengths comprised between 490 nm and 570 nm. […]
FIG. 9 illustrates in A a curve showing the percentage of living cells of the U87 line transfected with ASO RG6042 or treated with lipofectamine alone (Ctrl) as a function of the received dose of TMZ and, in B, the averages TMZ concentrations measured at the LD50 in 4 different MTT tests for cells of the […] line transfected with ASO RG6042 or treated with lipofectamine alone (Ctrl).

U251 cell line [2] = experiment: Temozolomide (TMZ) sensitivity test (MTT), U251 line; format: cell-based; conditions: U251 cultures, RG6042 vs control
Description: as §1, §6, §7
FIG. 8 illustrates in A a curve showing the percentage of live cells of the U251 line transfected with ASO RG6042 or treated with lipofectamine alone (Ctrl) as a function of the received dose of TMZ and, in B, the average TMZ concentrations measured at the LD50 in 4 different MTT tests for cells of the […] line transfected with ASO RG6042 or treated with lipofectamine alone (Ctrl).

T98G cell line [3] = experiment: Temozolomide (TMZ) sensitivity test (MTT), T98G line; format: cell-based; conditions: T98G cultures, RG6042 vs control
Description: as §1, §6, §7
FIG. 10 illustrates in A a curve showing the percentage of living cells of the T98G line transfected with ASO RG6042 or treated with lipofectamine alone (Ctrl) as a function of the received dose of TMZ and, in B, the average TMZ concentrations measured at the LD50 in 6 different MTT tests for cells of the T98G line transfected with ASO RG6042 or treated with lipofectamine alone (Ctrl).

U251 cell line [4] = experiment: Sensitivity test to the alkylating agent Lomustine (MTT), U251 line; format: cell-based
Description: as §1, §2
(§8) The cells transfected with ASO RG6042 or ASO Scr are harvested for the sensitivity test to the alkylating agent Lomustine.
(§9) The Lomustine was prepared in the form of a stock solution of 50 mg/ml (214 mM) in pure ethanol. The solution was filtered to sterilize it (0.2 μm pore filter) and frozen at −20° C. until further use. […]
FIG. 11 illustrates in A a curve showing the percentage of living cells of the U251 line transfected with ASO RG6042 or Scr as a function of the dose of Lomustine received and, in B, the mean of the concentrations of Lomustine measured at the LD50 in 4 different MTT assays for U251 cell line transfected with ASO RG6042 or Scr.

T98G cell line [5] = experiment: Sensitivity test to the alkylating agent Lomustine (MTT), T98G line; format: cell-based
Description: as §1, §2, §8, §9
FIG. 12 illustrates in A a curve showing the percentage of live cells of the T98G line transfected with ASO RG6042 or Scr as a function of the received dose of Lomustine and, in B, the mean of the concentrations of Lomustine measured at the LD50 in 4 different MTT assays for T98G cell line transfected with ASO RG6042 or Scr.

HTT = conditions: patients with Huntington's disease, after 4 intrathecal injections (Tabrizi et al. 2019); cited from earlier work

## ASO PH1: antisense oligonucleotide of sequence SEQ ID NO: 2 reducing HTT and MGMT levels (antisense TCTCTATTGCACATTCCAAG; listed as DNA, chemistry not given here)
[1]
  levels of MGMT protein: significantly reduce
Huntingtin (HTT) protein
  levels of HTT protein: significantly reduce

## ASO PH2: antisense oligonucleotide of sequence SEQ ID NO: 3 reducing HTT and MGMT levels (antisense CTCGACTAAAGCAGGATTTC; listed as DNA, chemistry not given here)
[1]
  levels of MGMT protein: significantly reduce
Huntingtin (HTT) protein
  levels of HTT protein: significantly reduce

## ASO PH3: antisense oligonucleotide of sequence SEQ ID NO: 4 reducing HTT and MGMT levels (antisense CCTGCATCAGCTTTATTTGT; listed as DNA, chemistry not given here)
[1]
  levels of MGMT protein: significantly reduce
Huntingtin (HTT) protein
  levels of HTT protein: significantly reduce

## ASO RG6042: antisense oligonucleotide of sequence SEQ ID NO: 1 targeting huntingtin mRNA; sequence from literature, clinical trials in Huntington's disease (antisense CTCAGTAACATTGACACCAC; listed as DNA, chemistry not given here)
Huntingtin protein (HTT)
  HTT protein levels: significantly reduces
[1]; T98G cells transfected with 100 μM ASO in lipofectamine for 48 h, western blot vs ASO Scr / lipofectamine alone
  MGMT levels: significantly reduces
[1]
  levels of MGMT protein: significantly reduce
Huntingtin (HTT) protein
  levels of HTT protein: significantly reduce
U87 cell line
  reduction in the LD50 at the TMZ: 32%
U251 cell line [2]
  reduction in the LD50 at the TMZ: 40%
T98G cell line [3]
  reduction in the LD50 at the TMZ: 45%
U251 cell line [4]; U251 cells
  sensitization to the alkylating agent Lomustine: sensitizes
U251 cell line [4]; U251 cultures, RG6042 vs Scr
  reduction in the LD50 of Lomustine: 41%
T98G cell line [5]; T98G cells
  sensitization to the alkylating agent Lomustine: sensitizes
T98G cell line [5]; T98G cultures, RG6042 vs Scr
  reduction in the LD50 of Lomustine: 47%
HTT
  HTT levels in the cerebrospinal fluid: decreased

Source: patent publication US20240158797A1, “ANTISENSE OLIGONUCLEOTIDES FOR THEIR USE IN AN ANTI-CANCER TREATMENT” (UNIVERSITÉ GRENOBLE ALPES, priority 2021, published 2024)
